The values that follow come from patent US7803930B2, “Antisense modulation of apolipoprotein B-expression” (Isis Pharmaceuticals, Inc., priority 2002, dated 2010).

In the oligonucleotide strings, read from the 5' end, every base follows the letter of its sugar. An asterisk marks phosphorothioate; unmarked linkages are phosphodiester. Other units and linkages are bracketed, terminal groups are in braces. A string of capitals states the bases alone. e = 2'-O-(2-methoxyethyl) (MOE); [5mC] = 5-methylcytosine; d = 2'-deoxy (DNA)

In data set [1] the test system is apolipoprotein B mRNA. The experiment in a line: Lean vs high fat fed C57BL/6 mice (Example 20): target mRNA levels in liver. It counts as in vivo, mouse. The settings on record: 50 mg/kg i.p. every three days, six weeks. Here is the method:
Male C57BL/6 mice were divided into two matched groups; (1) wild-type control animals (lean animals) and (2) animals receiving a high fat diet (60% kcal fat). Control animals received saline treatment and were maintained on a normal rodent diet. After overnight fasting, mice from each group were dosed intraperitoneally every three days with saline or 50 mg/kg ISIS 147764 (SEQ ID No: 109) for six weeks. At study termination and forty eight hours after the final injections, animals were sacrificed and evaluated for target mRNA levels in liver, cholesterol and triglyceride levels, liver enzyme levels and serum glucose levels.

The subject of data set [2] is mouse apolipoprotein B protein. The experiment in a line: High fat fed C57BL/6 mice, 6 week timecourse: liver apolipoprotein B protein, immunoblot. It counts as in vivo. The settings on record: 5, 25, 50 mg/kg, six weeks. The source says:
Liver protein samples collected at the end of the treatment period were subjected to immunoblot analysis using an antibody directed to mouse apolipoprotein B protein (Gladstone Institute, San Francisco, Calif.).
(Immunoblotting shows a protein as a band on a membrane.)

Data set [3] has as its system apolipoprotein B mRNA. The experiment in a line: ApoE knockout mice (Example 28): target mRNA levels in liver. Format: in vivo, mouse. The settings on record: high fat diet, six weeks. The source says:
Female ApoE knockout mice ranged in age from 5 to 7 weeks and were placed on a normal diet for 2 weeks before study initiation. ApoE knockout mice were then fed ad libitum a 60% fat diet, with 0.15% added cholesterol to induce dyslipidemia and obesity. Control animals were maintained on a high-fat diet with no added cholesterol. […]
At study termination and forty eight hours after the final injections, animals were sacrificed and evaluated for target mRNA levels in liver by RT-PCR methods verified by Northern Blot analysis, glucose levels, cholesterol and lipid levels by HPLC separation methods and triglyceride and liver enzyme levels (performed by LabCorp Preclinical Services; San Diego, Calif.).
Data are normalized to saline controls.

The nature of data set [4]: High fat fed C57BL/6 mice, 6 week timecourse: body, spleen, liver and fat pad weight. Format: in vivo, mouse. The settings on record: six weeks, vs saline-treated controls. Here is the method:
Male C57BL/6 mice (n=8) receiving a high fat diet (60% kcal fat) were evaluated over the course of 6 weeks for the effects of ISIS 147764 on body, spleen, liver and fat pad weight. Control animals received saline treatment (50 mg/kg). […]
At study termination, animals were sacrificed 48 hours after the final injections and body, spleen, liver and fat pad weights were measured. Values are expressed as percent change in body weight or ogan weight compared to the saline-treated control animals. Negative values indicated a decrease in weight.

The subject of data set [5] is mouse apolipoprotein B protein. Kind of data set: Transgenic mice dosing study (Example 52): immunoblot of mouse apolipoprotein B protein in serum and liver. It counts as in vivo.
The nature of data set [6]: High fat fed mice (Example 51): total, LDL- and HDL-cholesterol levels. The settings on record: 50 mg/kg i.p. twice weekly. It counts as in vivo, mouse. Here is the method: In a further embodiment of the invention, the inhibition of apolipoprotein B mRNA in mice was compared to liver oligonucleotide concentration, total cholesterol, LDL-cholesterol and HDL-cholesterol. Male C57Bl/6 mice receiving a high fat diet (60% fat) were evaluated over the course of 6 weeks for the effects of treatment with twice weekly intraperitoneal injections of 50 mg/kg ISIS 147764 (SEQ ID NO: 109) or 50 mg/kg of the control oligonucleotide ISIS 141923 (SEQ ID NO: 858). Control animals received saline treatment. Animals were sacrificed after 2 days, 1, 2, 4 and 6 weeks of treatment. Each treatment group at each time point consisted of 8 mice.
Target expression in liver was measured by real-time PCR as described by other examples herein and is expressed as percent inhibition relative to saline treated mice. Total, LDL- and HDL-cholesterol levels were measured by routine clinical analysis using an Olympus Clinical Analyzer (Olympus America Inc., Melville, N.Y.) and are presented in mg/dL. Results from saline-treated animals are shown for comparison. Intact oligonucleotide in liver tissue was measured by capillary gel electrophoresis and is presented as micrograms of oligonucleotide per gram of tissue.
The oligonucleotide treatments described in this example were duplicated to investigate the extent to which effects of ISIS 147764 persist following cessation of treatment. Mice were treated as described, and sacrificed 1, 2, 4, 6 and 8 weeks following the cessation of oligonucleotide treatment.

Where [7] appears, read: high fat fed male C57Bl/6 mice, treatment period 1 week.
Setting [8] is: high fat fed male C57Bl/6 mice, treatment period 2 weeks.
The mark [9] stands for this setting: high fat fed male C57Bl/6 mice, treatment period 4 weeks.
Setting [10] is: high fat fed male C57Bl/6 mice, treatment period 6 weeks.
The mark [11] stands for this setting: high fat fed male C57Bl/6 mice, treatment period 2 days.
Where [12] appears, read: high fat fed mice, 1 week after cessation of dosing.
The mark [13] stands for this setting: high fat fed mice, 2 weeks after cessation of dosing.
Where [14] appears, read: high fat fed mice, 4 weeks after cessation of dosing.
The mark [15] stands for this setting: high fat fed mice, 6 weeks after cessation of dosing.
The mark [16] stands for this setting: high fat fed mice, 8 weeks after cessation of dosing.

In the case of “GTCCCTGAAGATGTCAATGC (2'-MOE gapmer, further chemistry not given here) [ISIS 147764]”, the “Percent Change mRNA” value in the data set on apolipoprotein B mRNA [1] (High Fat Group) was −87%; with apolipoprotein B mRNA [1] (Lean-control group), −73%. Also, the “apolipoprotein B protein expression in liver (immunoblot)” value in data set [2] was “decreases apolipoprotein B protein expression in liver in a dose-dependent manner”. Also, the “mRNA Percent Inhibition” value was 2% in the data set with apolipoprotein B mRNA [3] (5 mg/kg i.p. every three days), 42% in the data set with apolipoprotein B mRNA [3] (25 mg/kg i.p. every three days) and 70% in the data set with apolipoprotein B mRNA [3] (50 mg/kg i.p. every three days). Besides, the “Percent Change Fat (fat pad weight)” value is listed as 10% in data set [4] (5 mg/kg i.p.), 6% in data set [4] (25 mg/kg i.p.) and −47% in data set [4] (50 mg/kg i.p.). Moreover, the figures for the “Percent Change Liver weight” value in data set [4] (5 mg/kg i.p.), in data set [4] (25 mg/kg i.p.) and in data set [4] (50 mg/kg i.p.) were 18%, 70% and 80%, respectively. For the same substance, the “Percent Change Spleen weight” value is recorded as 10% in data set [4] (5 mg/kg i.p.), 10% in data set [4] (25 mg/kg i.p.) and 46% in data set [4] (50 mg/kg i.p.). For the same substance, the “Percent Change Total Body Wt.” value in data set [4] (5 mg/kg i.p.) is listed as 5%; in data set [4] (25 mg/kg i.p.), 5%; in data set [4] (50 mg/kg i.p.), −4%.
For the substance “ISIS 301012: SEQ ID NO: 247, antisense oligonucleotide targeted to human apolipoprotein B (antisense GCCTCAGTCTGCTTCGCACC; chemistry not given here)”, in data set [5], the “expression of the mouse apolipoprotein B protein in liver (immunoblot)” value is on record as “does not change significantly” and the “expression of the mouse apolipoprotein B protein in serum (immunoblot)” value is “no significant change”.
For the substance “147764 (eG*eT*e[5mC]*e[5mC]*e[5mC]*dT*dG*dA*dA*dG*dA*dT*dG*dT*d[5mC]*eA*eA*eT*eG*e[5mC]) [compound 147764]”, the HDL-cholesterol in data set [6] (setting [7]) was 107 mg/dL; in data set [6] (setting [8]) it was 105 mg/dL; in data set [6] (setting [9]), 66 mg/dL; in data set [6] (setting [10]), 64 mg/dL; in data set [6] (setting [11]), 76 mg/dL; in data set [6] (setting [12]), 51 mg/dL. In addition, the HDL-cholesterol was determined as 49 mg/dL in data set [6] (setting [13]), 79 mg/dL in data set [6] (setting [14]), 100 mg/dL in data set [6] (setting [15]) and 94 mg/dL in data set [6] (setting [16]). The LDL-cholesterol in data set [6] (setting [7]) was 19 mg/dL; in data set [6] (setting [8]) it was 14 mg/dL; in data set [6] (setting [9]), 7 mg/dL; in data set [6] (setting [10]), 7 mg/dL; in data set [6] (setting [11]), 7 mg/dL; in data set [6] (setting [12]), 14 mg/dL. Also, the LDL-cholesterol in data set [6] (setting [13]) is recorded as 14 mg/dL; in data set [6] (setting [14]), 18 mg/dL; in data set [6] (setting [15]), 24 mg/dL; in data set [6] (setting [16]) it was 21 mg/dL. In addition, the Total cholesterol in data set [6] (setting [7]) is 128 mg/dL; in data set [6] (setting [8]) it was 121 mg/dL; in data set [6] (setting [9]), 75 mg/dL; in data set [6] (setting [10]) it was 73 mg/dL; in data set [6] (setting [11]), 101 mg/dL; in data set [6] (setting [12]), 69 mg/dL. The Total cholesterol amounted to 67 mg/dL in data set [6] (setting [13]), 111 mg/dL in data set [6] (setting [14]), 138 mg/dL in data set [6] (setting [15]) and 135 mg/dL in data set [6] (setting [16]).
